Patent US10626103B2, “Inhibitor of lysine specific demethylase-1” (CELGENE QUANTICEL RESEARCH, INC., priority 2014, dated 2020)

What was measured:
[1] = tested on: CD11b expression in THP-1 (AML) cells; assay: LSD1 CD11b cellular assay (flow cytometry); assay type: cell-based; conditions: Homo sapiens, 96 h, THP-1 cells, 4 days
How it was run: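 THP-1 cells were exposed to serially diluted compounds (0.2% DMSO final) for 4 days at 37 °C. CD11b expression was measured by flow cytometry with DAPI staining. The percent of CD11b-positive cells per concentration gave the IC50 curve.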

full-length human LSD1 = full-length human LSD1 (Homo sapiens (Human), UniProt O60341); assay: In vitro enzyme inhibition assay LSD-1 (TR-FRET); assay type: biochemical; conditions: H3K4me1-biotin peptide
How it was run: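 Demethylase activity of full-length human LSD1 was detected by TR-FRET after 1 hour incubation at room temperature. Excitation was at 320 nm, with emission at 615 nm and 665 nm. IC50 values were derived from the inhibition data.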

| IC50 [1] [nM] | IC50 (full-length human LSD1) [nM] | Compound |
| --- | --- | --- |
| 100 to 1000 | < 100 | N#Cc1ccc(-c2nc(C(=O)N3CCC[C@@H](N)C3)c(Cl)n2-c2ccc(C3CC3)nc2)cc1F [Example 80, 4-[4-[(3R)-3-Aminopiperidine-1-carbonyl]-5-chloro-1-(6-cyclopropylpyridin-3-yl)imidazol-2-yl]-2-fluorobenzonitrile] |
| < 100 | < 100 | N#Cc1ccc(-c2nc(C(=O)N3CC[C@H](N)C3)c(Cl)n2-c2ccc(C3CC3)nc2)cc1F [Example 81, 4-[4-[(3S)-3-Aminopyrrolidine-1-carbonyl]-5-chloro-1-(6-cyclopropylpyridin-3-yl)imidazol-2-yl]-2-fluorobenzonitrile] |
| < 100 | < 100 | COc1ccc(-n2c(-c3ccc(C#N)c(F)c3)nc(C(=O)N[C@@H]3CCCNC3)c2Cl)cc1F [Example 84, 5-Chloro-2-(4-cyano-3-fluorophenyl)-1-(3-fluoro-4-methoxyphenyl)-N-[(3R)-piperidin-3-yl]imidazole-4-carboxamide] |
| 100 to 1000 | < 100 | COc1ccc(-n2c(-c3ccc(C#N)c(F)c3)nc(C(=O)N[C@H]3CCCNC3)c2Cl)cc1F [Example 85, 5-Chloro-2-(4-cyano-3-fluorophenyl)-1-(3-fluoro-4-methoxyphenyl)-N-[(3S)-piperidin-3-yl]imidazole-4-carboxamide] |
| 100 to 1000 | < 100 | COc1ccc(-n2c(-c3ccc(C#N)c(F)c3)nc(C(=O)N[C@@H]3CCCNC3)c2F)cc1F [Example 86, 2-(4-Cyano-3-fluorophenyl)-5-fluoro-1-(3-fluoro-4-methoxyphenyl)-N-[(3R)-piperidin-3-yl]imidazole-4-carboxamide] |
| 100 to 1000 | < 100 | COc1ccc(-n2c(-c3ccc(C#N)c(F)c3)nc(C(=O)N3CC[C@H](N)C3)c2F)cc1F [Example 89, 4-[4-[(3S)-3-Aminopyrrolidine-1-carbonyl]-5-fluoro-1-(3-fluoro-4-methoxyphenyl)imidazol-2-yl]-2-fluorobenzonitrile] |
| 100 to 1000 | < 100 | Cc1c(C(=O)N2CCC3(CCCN3)C2)nc(-c2ccc(C#N)c(F)c2)n1-c1ccc2nn(C)cc2c1 (stereo not drawn) [Example 90, 4-[4-(1,7-Diazaspiro[4.4]nonane-7-carbonyl)-5-methyl-1-(2-methylindazol-5-yl)imidazol-2-yl]-2-fluorobenzonitrile] |
| < 100 | < 100 | Cc1c(C(=O)N2CCC3(CNC3)C2)nc(-c2ccc(C#N)c(F)c2)n1-c1ccc2nn(C)cc2c1 [Example 91, 4-[4-(2,6-Diazaspiro[3.4]octane-6-carbonyl)-5-methyl-1-(2-methylindazol-5-yl)imidazol-2-yl]-2-fluorobenzonitrile] |
| 100 to 1000 | < 100 | Cc1c(C(=O)N2CCC3(CCN3)C2)nc(-c2ccc(C#N)c(F)c2)n1-c1ccc2c(cnn2C)c1 (stereo not drawn) [Example 92, 4-[4-(1,7-Diazaspiro[3.4]octane-7-carbonyl)-5-methyl-1-(1-methylindazol-5-yl)imidazol-2-yl]-2-fluorobenzonitrile] |
| 100 to 1000 | < 100 | Cn1nc2ccc(-n3cc(C(=O)N4CCC5(CCN5)C4)nc3-c3ccc(C#N)c(F)c3)cc2c1Cl (stereo not drawn) [Example 93, 4-[1-(3-Chloro-2-methylindazol-5-yl)-4-(1,7-diazaspiro[3.4]octane-7-carbonyl)imidazol-2-yl]-2-fluorobenzonitrile] |
| < 100 | < 100 | Cc1c(C(=O)N2CC[C@H](N(C)C)C2)nc(-c2ccc(C#N)c(F)c2)n1-c1ccc2c(cnn2C)c1 [Example 95, 4-[4-[(3S)-3-(Dimethylamino)pyrrolidine-1-carbonyl]-5-methyl-1-(1-methylindazol-5-yl)imidazol-2-yl]-2-fluorobenzonitrile] |
| < 100 | < 100 | CN[C@H]1CCCN(C(=O)c2nc(-c3ccc(C#N)c(F)c3)n(-c3ccc4nn(C)cc4c3)c2C)C1 [Example 97, 2-Fluoro-4-[5-methyl-4-[(3S)-3-(methylamino)piperidine-1-carbonyl]-1-(2-methylindazol-5-yl)imidazol-2-yl]benzonitrile] |
| < 100 | < 100 | CN[C@@H]1CCCN(C(=O)c2nc(-c3ccc(C#N)c(F)c3)n(-c3ccc4nn(C)cc4c3)c2C)C1 [Example 98, 2-Fluoro-4-[5-methyl-4-[(3R)-3-(methylamino)piperidine-1-carbonyl]-1-(2-methylindazol-5-yl)imidazol-2-yl]benzonitrile] |
| 100 to 1000 | < 100 | CN(C)[C@H]1CCN(C(=O)c2cn(-c3ccc4nn(C)cc4c3)c(-c3ccc(C#N)c(F)c3)n2)C1 [Example 99, 4-[4-[(3S)-3-(Dimethylamino)pyrrolidine-1-carbonyl]-1-(2-methylindazol-5-yl)imidazol-2-yl]-2-fluorobenzonitrile] |
| 100 to 1000 | < 100 | CN(C)[C@H]1CCN(C(=O)c2nc(-c3ccc(C#N)c(F)c3)n(-c3ccc4nn(C)cc4c3)c2Cl)C1 [Example 100, 4-[5-Chloro-4-[(3S)-3-(dimethylamino)pyrrolidine-1-carbonyl]-1-(2-methylindazol-5-yl)imidazol-2-yl]-2-fluorobenzonitrile] |
| < 100 | < 100 | CN(C)[C@H]1CCN(C(=O)c2nc(-c3ccc(C#N)c(F)c3)n(-c3ccc4nn(C)c(Cl)c4c3)c2Cl)C1 [Example 101, 4-[5-Chloro-1-(3-chloro-2-methylindazol-5-yl)-4-[(3S)-3-(dimethylamino)pyrrolidine-1-carbonyl]imidazol-2-yl]-2-fluorobenzonitrile] |
| < 100 | < 100 | Cc1c2cc(-n3c(-c4ccc(C#N)c(F)c4)nc(C(=O)N4CC[C@H](N(C)C)C4)c3C)ccc2nn1C [Example 102, 4-[4-[(3S)-3-(Dimethylamino)pyrrolidine-1-carbonyl]-1-(2,3-dimethylindazol-5-yl)-5-methylimidazol-2-yl]-2-fluorobenzonitrile] |
| < 100 | < 100 | CN[C@H]1CCN(C(=O)c2nc(-c3ccc(C#N)c(F)c3)n(-c3ccc4nn(C)c(C)c4c3)c2C)C1 [Example 103, 4-[1-(2,3-Dimethylindazol-5-yl)-5-methyl-4-[(3S)-3-(methylamino)pyrrolidine-1-carbonyl]imidazol-2-yl]-2-fluorobenzonitrile] |
| < 100 | < 100 | Cc1c2cc(-n3c(-c4ccc(C#N)c(F)c4)nc(C(=O)N[C@@H]4CCCNC4)c3C)ccc2nn1C [Example 104, 2-(4-Cyano-3-fluorophenyl)-1-(2,3-dimethylindazol-5-yl)-5-methyl-N-[(3R)-piperidin-3-yl]imidazole-4-carboxamide] |
| < 100 | < 100 | CN[C@@H]1CCCN(C(=O)c2nc(-c3ccc(C#N)c(F)c3)n(-c3ccc4nn(C)c(C)c4c3)c2C)C1 [Example 105, 4-[1-(2,3-Dimethylindazol-5-yl)-5-methyl-4-[(3R)-3-(methylamino)piperidine-1-carbonyl]imidazol-2-yl]-2-fluorobenzonitrile] |
| < 100 | < 100 | Cc1c(C(=O)N2CC[C@H](N(C)C)C2)nc(-c2ccc(C#N)c(F)c2)n1-c1cc2c(Cl)n(C)nc2cc1F [Example 110, 4-[1-(3-Chloro-6-fluoro-2-methylindazol-5-yl)-4-[(3S)-3-(dimethylamino)pyrrolidine-1-carbonyl]-5-methylimidazol-2-yl]-2-fluorobenzonitrile] |
